Data on 2 molecules can be found in PMC7185459 (Antiviral Research, 2015).

Series [1] concerns hRSV strain Long. The settings on record: HEp-2 cells.
The test system of series [2] is hRSV strain Long. Put plainly: microbe, parasite or virus in culture. Particulars: human respiratory syncytial virus, HEp-2, 96 h.
Series [3] has as its system SRI 29365-resistant mutant hRSV (G protein A63V). It is filed as cell-based, Human respiratory syncytial virus.
The subject of a further series is human metapneumovirus. As to the kind of experiment: In vitro CPE assay, human metapneumovirus. It is filed as cell-based.
For a further series, the system named is Nipah virus. It is filed as cell-based.
Series [4] has as its system Venezuelan equine encephalitis virus. It is filed as cell-based.
A further series has as its system Dengue 2 virus. Put plainly: In vitro CPE assay, Dengue 2 virus. Type of series: cell-based.
The test system of the next series is human influenza virus. As to the kind of experiment: In vitro CPE assay, human influenza virus. Type of series: cell-based.
The subject of another series is SARS CoV. Type of series: cell-based.
The next series deals with RSV/A/Tracy. Type of series: in vivo. The settings on record: cotton rat, intraperitoneal at -1, +6, +24 h, vs vehicle, day +4.
Series [5] concerns hRSV strain Long. Particulars: A549 cells.
A short description of series [6]: physchem.
A short description of series [7]: physchem. This is another data set of the same source.
Series [8] relates to hRSV strain Long. Put plainly: microbe, parasite or virus in culture. The settings on record: human respiratory syncytial virus, A549.

Where two headings read alike, the source gives them in different places.

Regarding `c1csc(-c2nn3c(Cn4cnc5ccccc54)nnc3s2)c1` [Compound 1, 1-[6-(2-thienyl)[1,2,4]triazolo[3,4-b][1,3,4]thiadiazol-3-yl]methyl-1H-benzimidazole], the “SI (CC50/EC50)” value with hRSV strain Long [1] is 391. This molecule also gave an EC50 in the series with hRSV strain Long [2] of 230 nM.
On to `c1coc(-c2nn3c(Cn4cnc5ccccc54)nnc3s2)c1` [SRI 29365, 1-[6-(2-furyl)[1,2,4]triazolo[3,4-b][1,3,4]thiadiazol-3-yl]methyl-1H-benzimidazole], for which the “resistance of mutant virus relative to wt virus EC50” value in [3] was over 100 fold. Besides, the “reduction in CPE due to antiviral activity” value (in the series on human metapneumovirus; with Nipah virus; in [4]; in the series with Dengue 2 virus; in the series on human influenza virus; with SARS CoV) was “No significant reduction in CPE” each time. Also, the body weight entry with RSV/A/Tracy was “no significant difference”. Besides, the lung lobe weight entry with RSV/A/Tracy is recorded as “no significant difference”. Moreover, the “SI (CC50/EC50)” value with hRSV strain Long [1] (listed as 2) was 83; with hRSV strain Long [5], over 83. This molecule showed a solubility in “physchem [6]” of under 400 µM. This molecule also gave a half-life in “physchem [7]” of over 60 h. It took 1200 nM to reach a half-maximal effect in the series with hRSV strain Long [8] (EC50).
